Reference: ChEMBL document CHEMBL5352488, “Development of novel S-N3-DABO derivatives as potent non-nucleoside reverse transcriptase inhibitors with improved potency and selectivity” (Eur J Med Chem, 2023)

Columns and labels:
[1] = tested on: Human immunodeficiency virus 1; assay: Anti-HIV activity against wild type HIV-1 IIIB infected in human MT4 cells assessed as inhibition of virus-induced cytopathic effect by MTT assay; type: functional, organism-based; details: Human immunodeficiency virus 1, IIIB
[2] = tested on: Human immunodeficiency virus 1; assay: Anti-HIV activity against drug resistant HIV-1 harboring E138K mutant infected in human MT4 cells assessed as inhibition of virus-induced cytopathic effect by MTT assay; type: functional, organism-based; details: Human immunodeficiency virus 1, MT4
[3] = tested on: Human immunodeficiency virus 1; assay: Anti-HIV activity against drug resistant HIV-1 harboring Y188L mutant infected in human MT4 cells assessed as inhibition of virus-induced cytopathic effect by MTT assay; type: functional, organism-based; details: Human immunodeficiency virus 1, MT4
[4] = tested on: Human immunodeficiency virus 1; assay: Anti-HIV activity against drug resistant HIV-1 harboring F227L/V106A mutant infected in human MT4 cells assessed as inhibition of virus-induced cytopathic effect by MTT assay; type: functional, organism-based; details: Human immunodeficiency virus 1, MT4
[5] = Selectivity index, ratio of CC50 for cytotoxicity against human MT4 cells assessed as reduction in cell viability by MTT assay to EC50 for anti-HIV activity against wild type HIV-1 IIIB infected in human MT4 cells assessed as inhibition of virus-induced cytopathic effect by MTT assay; type: toxicity, cell-based; details: read-out: Ratio CC50/EC50
[6] = Cytotoxicity against human MT4 cells assessed as reduction in cell viability by MTT assay; type: toxicity, cell-based
[7] = tested on: Human immunodeficiency virus 1; assay: Anti-HIV activity against drug resistant HIV-1 harboring K103N mutant infected in human MT4 cells assessed as inhibition of virus-induced cytopathic effect by MTT assay; type: functional, organism-based; details: Human immunodeficiency virus 1, MT4
[8] = tested on: Human immunodeficiency virus 1; assay: Anti-HIV activity against drug resistant HIV-1 harboring L100I mutant infected in human MT4 cells assessed as inhibition of virus-induced cytopathic effect by MTT assay; type: functional, organism-based; details: Human immunodeficiency virus 1, MT4
[9] = tested on: Human immunodeficiency virus 1; assay: Anti-HIV activity against drug resistant HIV-1 harboring Y181C mutant infected in human MT4 cells assessed as inhibition of virus-induced cytopathic effect by MTT assay; type: functional, organism-based; details: Human immunodeficiency virus 1, MT4

SMILES | EC50 [1] [nM] | EC50 [2] [nM] | EC50 [3] [µM] | EC50 [4] [µM] | selectivity ratio [5] | CC50 [6] [µM] | EC50 [7] [µM] | EC50 [8] [µM] | EC50 [9] [µM]
Cc1c(C(C#N)c2ccccc2)nc(SC(C)C)[nH]c1=O (configuration not stated) | 370 | 870 | > 204 | 21.4 | – | – | – | – | –
CC(C)Sc1nc(C(N=[N+]=[N-])c2ccccc2)c(C(C)C)c(=O)[nH]1 (configuration not stated) | 470 | – | – | – | > 780 | > 364 | – | – | –
Cc1c(C(N=[N+]=[N-])c2ccc(Cl)cc2)nc(SC(C)C)[nH]c1=O (configuration not stated) | 220 | 3610 | > 357 | > 357 | > 1650 | > 357 | 61.1 | 11 | > 357
Cc1ccc(C(N=[N+]=[N-])c2nc(SC(C)C)[nH]c(=O)c2C(C)C)cc1 (configuration not stated) | 520 | – | – | – | > 667 | > 350 | – | – | –
Cc1c(C(N=[N+]=[N-])c2ccc(Br)cc2)nc(SC(C)C)[nH]c1=O (configuration not stated) | 230 | – | – | – | > 1410 | > 317 | – | – | –
Cc1c(C(N=[N+]=[N-])c2cccc3ccccc23)nc(SC(C)C)[nH]c1=O (configuration not stated) | 340 | 1370 | > 342 | > 342 | > 1000 | > 342 | > 342 | 5.27 | 186
CC(C)Sc1nc(C(N=[N+]=[N-])c2ccc(-c3ccccc3)cc2)c(C(C)C)c(=O)[nH]1 (configuration not stated) | > 59200 | – | – | – | < 1 | 84.2 | – | – | –
Cc1c(C(N=[N+]=[N-])c2ccc3ccccc3c2)nc(SC(C)C)[nH]c1=O (configuration not stated) | 440 | 5040 | 69.7 | 65 | 11 | 4.89 | > 154 | 11.3 | 60.3
CC(C)Sc1nc(C(N=[N+]=[N-])c2ccc(F)cc2)c(C(C)C)c(=O)[nH]1 (configuration not stated) | 1160 | – | – | – | > 298 | > 346 | – | – | –
Cc1c(C(N=[N+]=[N-])c2ccc(OC(F)(F)F)cc2)nc(SC(C)C)[nH]c1=O (configuration not stated) | 4930 | – | – | – | > 63 | > 313 | – | – | –
Cc1c(C(N=[N+]=[N-])c2ccc(F)cc2)nc(SC(C)C)[nH]c1=O (configuration not stated) | 290 | – | – | – | 1090 | 320 | – | – | –
CCc1c(C(N=[N+]=[N-])c2ccc3ccccc3c2)nc(SC(C)C)[nH]c1=O (configuration not stated) | 520 | – | – | – | < 8 | 3.98 | – | – | –
CCc1c(C(N=[N+]=[N-])c2ccccc2)nc(SC(C)C)[nH]c1=O (configuration not stated) | 140 | 550 | 188 | 14.9 | > 2770 | > 379 | 6.03 | 12.2 | 6.02
CCc1c(C(N=[N+]=[N-])c2ccc(F)cc2)nc(SC(C)C)[nH]c1=O (configuration not stated) | 380 | – | – | – | > 956 | > 360 | – | – | –
CCc1c(C(N=[N+]=[N-])c2cc(OC)cc(OC)c2)nc(SC(C)C)[nH]c1=O (configuration not stated) | 920 | – | – | – | > 349 | > 321 | – | – | –
Cc1cc(C)cc(C(N=[N+]=[N-])c2nc(SC(C)C)[nH]c(=O)c2C(C)C)c1 (configuration not stated) | 380 | – | – | – | > 878 | > 336 | – | – | –

SMILES | EC50 [1] [nM] | EC50 [2] [nM] | EC50 [3] [µM] | EC50 [4] [µM] | selectivity ratio [5] | CC50 [6] [µM] | EC50 [7] [µM] | EC50 [8] [µM] | EC50 [9] [µM]
CCc1c(C(N=[N+]=[N-])c2cccc3ccccc23)nc(SC(C)C)[nH]c1=O (configuration not stated) | 960 | 7340 | 55.8 | > 10.2 | 81 | 77.7 | 71.6 | 9.18 | 17.1
CCc1c(C(N=[N+]=[N-])c2ccc(Br)cc2)nc(SC(C)C)[nH]c1=O (configuration not stated) | 290 | 1860 | 160 | 95.7 | > 1040 | > 306 | 51.2 | 10.4 | 65.2
Cc1c(C(N=[N+]=[N-])c2ccccc2)nc(SC(C)C)[nH]c1=O (configuration not stated) | 55 | 2660 | > 396 | > 396 | > 7190 | > 396 | > 387 | 10.6 | > 396
Cc1c(C(N=[N+]=[N-])c2ccc(-c3ccccc3)cc2)nc(SC(C)C)[nH]c1=O (configuration not stated) | > 319000 | – | – | – | – | > 319 | – | – | –
CCc1c(C(N=[N+]=[N-])c2ccc(OC(F)(F)F)cc2)nc(SC(C)C)[nH]c1=O (configuration not stated) | 6020 | 260 | 62.2 | 9.71 | > 50 | > 302 | 38.2 | 29.5 | 60.4
CC(C)Sc1nc(C(N=[N+]=[N-])c2ccc(Cl)cc2)c(C(C)C)c(=O)[nH]1 (configuration not stated) | 900 | – | – | – | > 367 | > 331 | – | – | –
CCc1c(C(N=[N+]=[N-])c2ccc(-c3ccccc3)cc2)nc(SC(C)C)[nH]c1=O (configuration not stated) | > 308000 | 370 | 65.4 | 16 | – | > 308 | 20.9 | 2.06 | 4.41
CC(C)Sc1nc(C(N=[N+]=[N-])c2ccc3ccccc3c2)c(C(C)C)c(=O)[nH]1 (configuration not stated) | > 4780 | 90 | > 58.7 | 7.39 | < 1 | 4.79 | 3.3 | 1.06 | 1.4
CC(C)Sc1nc(C(N=[N+]=[N-])c2ccc(Br)cc2)c(C(C)C)c(=O)[nH]1 (configuration not stated) | 1450 | 3690 | > 32.3 | > 32.2 | 23 | 32.8 | 8.2 | 1.44 | > 32.2
Cc1ccc(C(N=[N+]=[N-])c2nc(SC(C)C)[nH]c(=O)c2C)cc1 (configuration not stated) | 83 | – | – | – | 93 | 7.73 | – | – | –
CCc1c(C(N=[N+]=[N-])c2ccc(Cl)cc2)nc(SC(C)C)[nH]c1=O (configuration not stated) | 260 | 810 | > 344 | > 127 | > 1310 | > 344 | 14.3 | 3.69 | 95.2
COc1cc(OC)cc(C(N=[N+]=[N-])c2nc(SC(C)C)[nH]c(=O)c2C)c1 (configuration not stated) | 340 | 1540 | > 333 | 38.5 | > 983 | > 333 | 107 | 2.62 | 9.85
O=C1Nc2ccc(Cl)cc2[C@@](C#CC2CC2)(C(F)(F)F)O1 [EFAVIRENZ] | – | – | – | 0.28 | – | – | – | – | –
Cc1ccnc2c1NC(=O)c1cccnc1N2C1CC1 [NEVIRAPINE] | – | – | > 15 | > 15 | – | > 15 | – | – | 7.71
Cc1cn([C@H]2C[C@H](N=[N+]=[N-])[C@@H](CO)O2)c(=O)[nH]c1=O [ZIDOVUDINE] | – | – | – | 0.026 | > 236 | > 7.06 | 0.024 | 0.012 | 0.023
